According to patent publication US10465196B2, “Treatment of C9FTD/ALS by targeting RNA expanded repeat sequences” (THE SCRIPPS RESEARCH INSTITUTE, priority 2014, dated 2019):
Entries after “also recorded” stand apart in the source; their conditions may differ. Values belong to the molecule of their own block, whether it stands above or below them.

Key:
r(GGGGCC)8 [1] = details: cited from earlier work
r(GGGGCC)8 [2] = assay: Optical melting of r(GGGGCC)8 in the presence of small molecule; format: binding; details: for increase of Tm of r(GGGGCC)8 / stabilization of the RNA (r(GGGGCC)8 stability): 1 μM RNA, 3 μM compound; for increase of Tm of r(GGGGCC)8 / stabilization of the RNA (r(GGGGCC)8 stability) / ΔG / Tm: 100 mM NaCl; for ΔG: 37° C.; for ΔG / ΔH / ΔS / Tm: r(GGGGCC)8 1 uM + compound 3 μM; for ΔH / ΔS: 10 mM Tris HCl pH 7.4, 100 mM NaCl
[3] = tested on: (GGGGCC)66-expressing cells; assay: RNA-FISH of nuclear foci; format: cell-based; details: compound treatment 24 h
Protocol: RNA fluorescence in situ hybridization (FISH) of ([NT]-expressing cells. […] Cells were hybridized with denatured Cy3-conjugated ([NT])4 probe (2 ng/μl) in hybridization buffer (50% formamide, 10% dextran sulfate, 0.1 mg/mL yeast tRNA, 2×SSC, 50 mM sodium phosphate) overnight at 37° C. Cells were then washed once with 40% formamide/1×SSC for 30 min at 37° C. and twice with DEPC-PBS at room temperature for 5 min, followed by counterstaining with Hoechst 33258 (1 μg/ml, Invitrogen). Immunostained cells were visualized using a Zeiss Axiovert Fluorescence Microscope with apotome module. […] To quantify foci-bearing cells, coverslips mounted on slides were scanned by Aperio ScanScope. Ten fields were randomly selected under 20× magnification. For each field, the number of foci-positive nuclei and the total number of nuclei were counted using MetaMorph software. These counts were used to determine the average percentage of foci-positive cells for each condition.

r(CGG)12 = assay: Biolayer interferometry (BLI) binding affinity, r(CGG)12
Protocol: (§1) The RNA (200 μL aliquots) was then added to a black 96-well plate (Greiner Bio-One). […] A sample with no compound was used as background. All experiments were performed at 30° C. with agitation set to 1000 rpm. The biotinylated RNA (ligand) was loaded onto the surface of streptavidin biosensors (SA) for 660 s. […] Biosensors were then washed in 1× Kinetics Buffer for 300 s followed by association of the compound (analyte) for 5000 s. Finally, dissociation of the ligand-analyte interaction was analyzed for 5000 s. The resulting curves were corrected by subtracting the response recorded on a sensor loaded with ligand (RNA) but incubated with no analyte (compound). Data analyses and curve fitting were completed using Octet Data Analysis, version 7.0. Experimental data were fitted using the 2:1 heterogeneous ligand (HL) curve fit. Global analysis of all data sets acquired for different analyte concentrations, assuming reversible binding, was completed using nonlinear least squares fitting. […] [formula] where [Analyte] is the concentration of compound, Req is the estimated response at equilibrium, kon is association constant, koff is dissociation constant.

[4] = tested on: hairpin with a fully paired stem; assay: Biolayer interferometry (BLI) binding affinity, fully paired hairpin
Protocol: as §1

r(GGGGCC)66 = assay: Identification of cellular RNA targets by 1a-CA-biotin pull-down and qRT-PCR (competitive profiling); format: cell-based; details: co-treatment with 1a-CA-biotin and compound
[5] = tested on: (GGGGCC)66-expressing cells; assay: Western blot analysis of c9RAN proteins (RAN translation); format: cell-based; details: HEK293 cells; 100 μM, 24 h (for compound 3)
r(GGGGCC)8 [6] = assay: Biolayer interferometry (BLI) binding affinity, r(GGGGCC)8; details: BLI kinetic binding; no additional cation
Protocol: as §1

[7] = tested on: cells expressing (CGG)88 placed in the 5'UTR of GFP; assay: Western blot analysis of RAN translation in a FXTAS cell model; format: cell-based; details: COS7 cells, anti-GFP
Protocol: Western blot analysis of RAN translation in a FXTAS cell model. Studies were completed using a plasmid in which r(CGG)88 is embedded in the 5′ UTR of an open reading frame encoding GFP (Todd et al., 2013). Therefore, RAN products are fused to GFP and can be detected using an anti-GFP antibody (Todd et al., 2013). COS7 cells were grown as monolayers in 96-well plates in growth medium (1× DMEM, 10% FBS, and 1× GlutaMax (Invitrogen)). […] Compound 1a was added to the transfection cocktail, which was then applied to the cells. The transfection cocktail was replaced with growth medium containing 1a approximately 5 h post transfection, and the cells were incubated at 37° C. for 18 h. Cells were lysed in the plate using 100 μl/well of MPER Mammalian Protein Extraction Reagent (Pierce Biotechnology) containing 1 μl of Halt Protease Inhibitor cocktail (Thermo Scientific). Cellular proteins were separated by SDS-PAGE (10% polyacrylamide) and then transferred to a PVDF membrane by wet transfer method. Protein content was analyzed by Western blotting by using anti-GFP (Santa Cruz) or anti-β-actin (Sigma Aldrich) as primary antibodies and anti-IgG-horseradish peroxidase conjugate as the secondary antibody. Chemiluminescent signal was generated by SuperSignal West Pico Chemiluminescent substrate (Thermo Scientific), and the blot was imaged with X-ray film (Phenix Research).

C9ORF72+ iNeurons [8] = assay: RNA-FISH of RNA foci in iNeurons; format: cell-based, human; details: three C9ORF72+ iNeuron lines; 2 μM, four days
Protocol: Qiagen) for 15 min at 37° C., or with DNase I (3 U/ml; Invitrogen) for 30 minutes at room temperature, prior to dehydration. Cells were incubated in hybridization buffer (10% dextran sulfate, 50% formamide, 50 mM sodium phosphate buffer (pH 7), 2×SSC) at 66° C. for 20-60 min. […] Cells were hybridized with probe in a sealed, light-protected chamber for 16 h-24 h at 66° C. The coverslips were subsequently washed with 0.1% Tween-20/2×SSC for 5 min followed by three 10 min stringency washes in 0.1×SSC at 66° C. The cells were stained with Hoechst (Invitrogen), rinsed with DEPC-treated water, dehydrated through 70% and 100% ethanol and air dried. Coverslips were mounted with Prolong Gold antifade reagent (Life Technologies). […] For each of 3 cell lines, 3 fields were randomly selected per condition. For each field, the number of foci-positive nuclei and the total number of nuclei were counted to determine the average percentage of foci-positive cells.

C9ORF72+ iNeurons [9] = assay: Poly(GP) and poly(PR) inclusions in iNeurons (immunocytochemistry); format: cell-based, human; details: 2 or 4 μM, four days
[10] = tested on: r(CGG)60-expressing cells; details: cited from earlier work
[11] = tested on: (GGGGCC)66-expressing cells; assay: Poly(GP) MSD immunoassay of cell lysates; format: cell-based; details: 24 h
Protocol: Western blot analysis of c9RAN proteins. HEK293 cells were cultured in Opti-Mem supplemented with 10% FBS and 1% penicillin/streptomycin. […] Twenty-four hours later, cell pellets were collected. […] Western blotting was performed as previously described (Gendron et al., 2013). […] After centrifugation at 16,000×g for 20 min at 4° C., the supernatant was collected and protein concentration determined by BCA assay. […] Anti-GAPDH (1:10,000, BioDesign) was used to ensure equal loading among wells. Membranes were washed three times for 10 min in TBST and incubated with donkey anti-rabbit or anti-mouse IgG conjugated to horseradish peroxidase (1:5000; […] Protein expression was visualized by enhanced chemiluminescence treatment and exposure to film. Immunoassay analysis of c9RAN proteins. As an alternative means to measure poly(GP) proteins, Meso Scale Discovery (MSD) electrochemiluminescence detection technology was utilized to establish sandwich immunoassays using polyclonal anti-GP as capture and detection antibodies. […] Poly(GP) proteins were also measured in lysates from cultured cells (10-35 μg of protein per well) prepare as described above, or from RIPA-soluble homogenates from frozen frontal cortical tissues (35 μg of protein per well). Brain homogenates were prepared as previously described (Almeida et al., 2013). In brief, tissue was lysed in cold RIPA buffer and sonicated on ice. Lysates were cleared by centrifugation at 100,000 g for 30 min at 4° C. The supernatant was collected and protein concentration was determined by BCA assay.

C9ORF72 mRNA = assay: qRT-PCR of C9ORF72 mRNA in iNeurons; format: cell-based, human; details: 4 μM, 4 d; all variants and long form
Protocol: RNA was extracted using the Direct-Zol RNA kit combined with in-column DNase I digestion, as per the manufacturer's instructions (Zymo Research, Irvine, Calif., USA). RNA integrity was obtained using the Agilent 2100 Bioanalyzer (Agilent Technologies, Santa Clara, Calif., USA). cDNA was obtained after reverse transcription polymerase chain reactions (RT-PCR) using approximately 500 ng of RNA with random primers and the High Capacity cDNA Transcription Kit (Applied Biosystems, Foster City, Calif., USA) as per the manufacturer's instructions. […] Relative quantification of C9ORF72 variants was determined using the ΔΔCt method and normalized to GAPDH.

[12] = tested on: r(CCCCGG)66-expressing cells; assay: RNA-FISH of cells expressing antisense repeats; format: cell-based
Protocol: Western blot analysis and RNA-FISH of cells expressing antisense repeats. To examine the effect of 1a on RAN translation and foci formation in cells expressing antisense ([NT]) repeats, we utilized a previously described ([NT])66 expression vector (Gendron et al., 2013). Transfection, treatment, Western blotting, and RNA-FISH using a [NT] probe from IDT, were conducted as described above for ([NT])66-expressing cells.

[13] = tested on: r(CCCCGG)66-expressing cells; assay: RAN translation in cells expressing antisense repeats (immunoassay); format: cell-based; details: 100 μM, 24 h
Protocol: Immunoassay analysis of c9RAN proteins. As an alternative means to measure poly(GP) proteins, Meso Scale Discovery (MSD) electrochemiluminescence detection technology was utilized to establish sandwich immunoassays using polyclonal anti-GP as capture and detection antibodies. […] Poly(GP) proteins were also measured in lysates from cultured cells (10-35 μg of protein per well) prepare as described above, or from RIPA-soluble homogenates from frozen frontal cortical tissues (35 μg of protein per well). Brain homogenates were prepared as previously described (Almeida et al., 2013). In brief, tissue was lysed in cold RIPA buffer and sonicated on ice. Lysates were cleared by centrifugation at 100,000 g for 30 min at 4° C. The supernatant was collected and protein concentration was determined by BCA assay. […] A second MSD sandwich immunoassay was developed for the detection of poly(PR) proteins using polyclonal anti-PR as capture and detection antibodies. To validate specificity of the poly(PR) assay, lysates from cells transfected to express each possible protein RAN translated from the sense or antisense transcripts of the expanded C9ORF72 repeat [GFP-(GA)5, GFP-(GR)5, GFP-(GP)5, GFP-(PA)5, GFP-(PR)5] were assayed, as were lysates from cells expressing ([…]. 2F). Western blot analysis and RNA-FISH of cells expressing antisense repeats. […]

SMILES: C[n+]1ccc(-c2c3nc(c(-c4cc[n+](C)cc4)c4ccc([nH]4)c(-c4cc[n+](C)cc4)c4ccc([nH]4)c(-c4cc[n+](C)cc4)c4nc2C=C4)C=C3)cc1 [TMPyP4]
binding to r(GGGGCC)8 in vitro (r(GGGGCC)8 [1]): binds

Kd for r(CGG)12 compared with r(GGGGCC)8 (r(CGG)12): similar
binding to a hairpin with a fully paired stem compared with r(GGGGCC)8 [4]: bind more weakly
Kd (r(GGGGCC)8 [6]): 16 µM
SMILES: CCN(CC)CCNC(=O)c1cc2cc(NC(=O)c3cc4cc(N)ccc4[nH]3)ccc2[nH]1 [Compound 3]
increase of Tm of r(GGGGCC)8 (r(GGGGCC)8 [2]): did not significantly affect
stabilization of the RNA (r(GGGGCC)8 stability) (r(GGGGCC)8 [2]): did not significantly affect
ΔG (r(GGGGCC)8 [2]): -9.10 ± 0.24 kcal/mol
ΔH (r(GGGGCC)8 [2]): -71.1 ± 1.5 kcal/mol
ΔS (r(GGGGCC)8 [2]): -200 ± 4 cal/K · mol
Tm (r(GGGGCC)8 [2]): 82.2 ± 0.2 °C
percentage of foci-positive cells [3]: not
amount of r(GGGGCC)66 that forms an adduct with 1a-CA-biotin in the presence of compound (r(GGGGCC)66): significantly depleted
poly(GA) protein production (RAN translation) [5]: did not influence
synthesis of poly(GP) proteins (RAN translation) [5]: modestly inhibited

SMILES: Cc1c2cc[n+](CCN3CCCCC3)cc2c(C)c2c1[nH]c1ccc(O)cc12 [Compound 1a]
increase of Tm of r(GGGGCC)8 (r(GGGGCC)8 [2]): 3.1 °C
stabilization of the RNA (r(GGGGCC)8 stability) (r(GGGGCC)8 [2]): 0.95 kcal/mol
ΔG (r(GGGGCC)8 [2]): -9.93 ± 0.15 kcal/mol
ΔH (r(GGGGCC)8 [2]): -74.4 ± 1.0 kcal/mol
ΔS (r(GGGGCC)8 [2]): -208 ± 3 cal/K · mol
Tm (r(GGGGCC)8 [2]): 84.7 ± 0.2 °C
percentage of foci-positive cells [3]: significantly decreased
Kd for r(CGG)12 compared with r(GGGGCC)8 (r(CGG)12): similar
RAN translation in cells expressing (CGG)88 [7]: inhibits RAN translation
downstream canonical translation (GFP) [7]: does not affect
binding to a hairpin with a fully paired stem compared with r(GGGGCC)8 [4]: bind more weakly
amount of r(GGGGCC)66 that forms an adduct with 1a-CA-biotin in the presence of compound (r(GGGGCC)66): significantly depleted
poly(GA) protein production (RAN translation) [5]: significantly decreased
synthesis of poly(GP) proteins (RAN translation) [5]: significantly decreased
percentage of cells with RNA foci (C9ORF72+ iNeurons [8]): significantly decreased
Kd (r(GGGGCC)8 [6]): 9.7 µM
poly(PR) expression (inclusions), synthesized from the antisense transcript (C9ORF72+ iNeurons [9]): no change
percentage of cells with poly(GP) inclusions (RAN translation of poly(GP)) (C9ORF72+ iNeurons [9]; listed as la): significantly decreased; also recorded: dose-dependent decrease
nuclear foci in r(CGG)60-expressing cells [10]: does reduce nuclear foci
decrease in poly(GP) protein ([11]; 25 μM): 10%
decrease in poly(GP) protein ([11]; 50 μM): 18%
decrease in poly(GP) protein ([11]; 100 μM): 47%
C9ORF72 mRNA levels (C9ORF72 mRNA): no effect
percentage of cells bearing r(CCCCGG) foci [12]: no change
poly(GP) proteins RAN translated from antisense transcripts [13]: no effect
poly(PR) proteins RAN translated from antisense transcripts [13]: no effect
